Ends that are not written are not given here.

Test [1] has as its system RAW 264.7 cell line. In words: FACS analysis of FITC-labeled mimotope binding to RAW 264.7 cell line. It is filed as cell-based, murine. The method, then: (§1) The cell line RAW 264.7 obtained from the American Type Culture Collection was grown in Dulbecco's modified Eagle's medium (DMEM) supplemented with 10% FCS, 1% penicillin, 1% L-glutamine, 1% nonessential amino acids, and 1% pyruvate (Biological Industries, Beit Haemek, Israel) to an 80% confluent culture at 37° C. in an atmosphere enriched with 5% CO2.
RAW 264.7 cells were grown in a 250-ml flask, washed 3 times in cold PBS, and harvested. Cells were then incubated for 15 min at 37° C., with the FITC-labeled peptide diluted 1:50, then washed 3 times in cold PBS. The fluorescence levels of 10,000 cell counts were determined by FACS (Becton Dickinson, Franklin Lakes, N.J.) and analyzed by CELLQuest™ software. Assay of competitive binding between mannose and the FITC-labeled B11 peptide was performed according to Nguyen and Hildreth, [Nguyen, D. G., and Hildreth, J. E. Eur J Immunol 33:483-493 (2003)].

In test [2] the test system is RAW 264.7 cell line. In words: Confocal microscopy of FITC-labeled B11 peptide binding to RAW 264.7 cell line. Type of test: cell-based, murine. Conditions: FIG. 5A. As for the experimental part:
as §1
B11 peptide (50 μg) was conjugated to FITC (Biotium, Hayward, Calif.) as described by Sethi et al., [Sethi, K. K., et al. Cell Motil Cytoskeleton 52:231-241 (2002)]. For confocal microscopy, RAW 264.7 cells were grown in 8-well glass slides, Chamber Slide™ (Nunc), as described above. Cells were washed three times in cold PBS and incubated with the FITC-labeled mimotope for 5 min at 4° C. in serial dilutions of 1:2-1:100 in cold PBS. Slides were imaged immediately with a Zeiss 410 confocal laser scanning microscope.

The subject of test [3] is IgG antibodies in sera of Mtb-infected mice. Type of test: binding, BALB/c mice.
The test system of the next test is CS40 mAb. In words: Direct peptide ELISA with CS40 mAb. Conditions: synthetic peptide coated plates. It is filed as binding.
The next test concerns CS40 anti-ManLAM mAb. In words: ELISA competition vs. ManLAM for CS40 mAb. It is filed as binding. Conditions: 50 μg/ml of peptide; FIG. 1B. As for the experimental part: Binding efficacy of the amino acid molecule to ManLAM binding antibodies may be evaluated by determining the magnitude of OD decrease when serial dilutions of phage clones/amino acid molecule are incubated with CS40 mAb. The phage clones/amino acid molecule with a higher affinity to mAb will show maximum inhibition of the binding of the mAb to ManLAM with the lowest number of phage particles or lowest amount of amino acid molecule, respectively.
ELISA competition assay was performed according to Kaur et al., [Kaur, D., et al. Microbiology 148:3049-3057 (2002)]. Briefly, plates were coated with 0.5 μg/well ManLAM. Plates were blocked as described above. The CS40 mAb (diluted 1:2000) was mixed with various concentrations of either phage particles in TBS/1% BSA ([…]) or peptides in PBS/1% BSA (0-200 μg/well). […] After washing (PBS), the ELISA procedure was performed as described above. Samples were all tested in triplicate
Efficiency of binding was evaluated by the magnitude of OD decrease when serial dilutions of phage clones were incubated with the CS40 mAb.

Test [4] has as its system serum antibodies of TB patients. In words: Direct ELISA of human sera on B11 peptide or ManLAM coated plates. Particulars: FIG. 4. For orientation: ELISA stands for enzyme-linked immunosorbent assay.
Protocol: Direct ELISA assays were performed by coating 96-well ELISA plates (O/N at 4° C.) with 5-20 μg peptide per well in PBS ManLAM 5 μg/well (50 μl/well). The plates were washed twice in phosphate buffered saline (PBS), blocked with PBS/1% BSA and then washed twice (PBS). Sera diluted in PBS/0.5% BSA (1:50 or 1:200) or CS40 mAb (1:2000) (50 μl per well) was added and incubated for 1 h at 37° C. After washing, alkaline phosphatase-labeled goat anti-mouse immunoglobulin (Sigma, St. Louis, Mo.) was added. Following 90-min incubation at 37° C., p-nitrophenyl phosphate (KPL, Gaithersburg, Md.) was added to the plates, and optical density was measured at 405 nm using ELISA reader (ELX-800UV, Bio-Tec instruments, Winooski, Vt.). In all ELISA procedures, samples were tested in triplicate.
The presence of serum antibodies in sera of TB patients that bind the B11 peptide was tested. […] Using ELISA, sera from Bacillus Calmette Guerin (BCG)-vaccinated individuals (n=10) was tested, as it is sometimes difficult to distinguish BCG-vaccinated individuals from TB patients [Ciesielski, S. D., J Fam Pract 40:76-80 (1995)].

Take “FITC-conjugated B11 peptide: B11 peptide conjugated to FITC (ISLTEWSMWYRH; also: FITC-conjugated, position not given here)”: the “effect of D-mannose on binding to macrophages (FACS)” value in the test on RAW 264.7 cell line [1] (0.125 M D-mannose added, FIG. 5C) is on record as “inhibited”. In addition, the “binding to macrophage cell line RAW 264.7 by FACS analysis” value in the test on RAW 264.7 cell line [1] (FITC-labeled peptide diluted 1:50, FIG. 5B) is on record as “bound”. Further, the “binding to macrophage cell line RAW 264.7 by confocal microscopy” value in the test on RAW 264.7 cell line [2] is given as “bound”.
As for “ISLTEWSMWYRH (random phage display library) [B11 peptide]”, the “IgG Abs in sera of Mtb-infected mice binding the antigen, vs. naive mice” value in test [3] is “significantly higher”. The “binding to CS40 mAb by direct ELISA” value with CS40 mAb is “bound”. Also, the “decrease in OD in competitive ELISA vs. ManLAM” value in the test on CS40 anti-ManLAM mAb came out at 100%. Also, the “anti-peptide antibody titers in BCG-vaccinated individuals vs. TB patients” value in test [4] (BCG-vaccinated (n=10), p<0.001) is on record as “significantly lower”. Further, the “antigen-binding antibody titers in sera of TB patients vs. healthy individuals” value in test [4] (TB patients (n=16) vs. healthy individuals (n=36)) was “Significantly higher titers”.
On to “CISLTEWSMWYRH (random phage display library) [SEQ ID NO: 10, B11 peptide with additional cysteine residue at the amino terminus]”, for which the “binding properties to ManLAM-binding antibodies compared with original peptide” value in test [3] (ELISA with extra cysteine at the amino terminus, data not shown) was “maintained binding properties”.
